Reference: patent publication US20100168079A1 (priority 2008, published 2010)

Tests used:
[1] = target: T1, human S1P1 receptors (Homo sapiens, UniProt P21453); test: Human S1P1 Receptor Calcium FLIPR Antagonist Assay (HeLa Gα16 S1P1); assay type: cell-based; conditions: relative antagonism of Ca2+ signal evoked by probing agonist GNF-AC-1 at EC80; HeLa-S1P1/Gα16 cells
T1 construct: myc (N); expressed in transfected cells; host or cells: HeLa (human cervix carcinoma, ATCC CCL2), HeLa-S1P1/Gα16 cell clone 1
In short: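 HeLa Gα16 cells expressing S1P1 loaded for calcium fluorescence on FLIPR; compounds added in HBSS with 0.1% BSA, then agonist at EC80 20-30 min later. IC50 from (Fmax-Fmin)/Fmin versus log compound concentration.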

[2] = test system: circulating lymphocytes; test: Measurement of Circulating Lymphocytes; assay type: in vivo, Rats (Lewis strain, male); conditions: Rattus norvegicus, Lymphocyte; male Lewis rats, 14 hours after oral 30 mg/kg, compared to vehicle-only group; mean±SEM; read-out: Residual Lymphocyte Counts 14 hours after 30 mg/kg p.o. dosing
Protocol: The compounds of formula (I) typically induce the depletion of blood lymphocyte as may be determined in the assay described below. Moreover, compounds of formula (I) are typically efficacious in the said assay also when administered via the per oral route of administration.
Measurement of Circulating Lymphocytes:
The test compounds (or salts thereof) are dissolved in a vehicle such as water, saline, PEG (polyethylene glycol) 200, or PBS (phosphate buffered saline). Rats (Lewis strain, male, 6-12 weeks old) are administered up to 100 mg/kg of the test compounds in 2 ml/kg vehicle via per oral or subcutaneous application. The vehicle or a reference salt and FTY720 (0.3 mg/kg) are included as negative and positive controls, respectively.
Blood is collected from the sublingual vein before and 2, 8 and 24 hours or 14, 18 and 24 hours after the test compound administration under short isoflurane anesthesia. Whole blood samples are subjected to hematology analysis. Peripheral lymphocyte counts are determined using an automated analyzer. The Haemathology System uses a combination of light scatter, cytochemical staining and nuclear density on two independent channels to measure the total and differential white cell counts. Two to four rats are used to assess the lymphocyte depletion activity of each compound screened. The data are presented as mean±SEM.

T1 sequence (P21453 whole entry): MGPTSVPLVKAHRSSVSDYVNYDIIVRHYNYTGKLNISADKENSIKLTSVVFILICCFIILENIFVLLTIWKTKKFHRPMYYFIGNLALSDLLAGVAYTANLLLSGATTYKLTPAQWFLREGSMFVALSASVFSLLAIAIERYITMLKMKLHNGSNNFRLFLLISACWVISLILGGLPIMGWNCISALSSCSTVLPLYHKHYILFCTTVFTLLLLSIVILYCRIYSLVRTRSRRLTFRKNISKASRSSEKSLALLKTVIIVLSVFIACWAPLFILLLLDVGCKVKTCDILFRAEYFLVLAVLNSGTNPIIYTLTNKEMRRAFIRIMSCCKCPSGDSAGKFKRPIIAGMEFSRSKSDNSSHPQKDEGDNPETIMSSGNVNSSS

Compound	IC50 [1]	response vs control in vivo at 30 mg/kg [2]
Cc1cc(C(C)(C)Nc2cccc(-c3cc(C)c(C(=O)N(C)C4(C(=O)O)CC4)c(C)c3)c2)ccc1Cl [Example 85, 1-({3′-[1-(4-Chloro-3-methyl-phenyl)-1-methyl-ethylamino]-3,5-dimethyl-biphenyl-4-carbonyl}-methyl-amino)-cyclopropanecarboxylic acid]	11 nM	14.7%
Cc1cc([C@@H](C)Nc2cccc(-c3cc(C)c(C(=O)NC4(C(=O)O)CC4)c(C)c3)c2)cc(C)c1Cl [Example 99, 1-({3′-[(R)-1-(4-Chloro-3,5-dimethyl-phenyl)-ethylamino]-3,5-dimethyl-biphenyl-4-carbonyl}-amino)-cyclopropanecarboxylic acid]	1 nM	15.5%
Cc1cc([C@@H](C)Nc2cccc(-c3cc(C)c(C(=O)N[C@@H](C)C(=O)O)c(C)c3)c2)cc(C)c1Cl [Example 100, (S)-2-({3′-[(R)-1-(4-Chloro-3,5-dimethyl-phenyl)-ethylamino]-3,5-dimethyl-biphenyl-4-carbonyl}-amino)-propionic acid]	1 nM	20.9%
Cc1cc(C(Nc2cccc(-c3cc(C)c(C(=O)N(C)[C@@H](C)C(=O)O)c(C)c3)c2)C(F)F)ccc1Cl (stereo partly drawn) [Example 103, (S)-2-({3′-[1-(4-Chloro-3-methyl-phenyl)-2,2-difluoro-ethylamino]-3,5-dimethyl-biphenyl-4-carbonyl}-methyl-amino)-propionic acid]	3 nM	13.9%
CC[C@H](c1ccc(Cl)c(C)c1)N(C)c1cccc(-c2cc(C)c(C(=O)N(C)[C@@H](C)C(=O)O)c(C)c2)c1 [Example 105, (S)-2-[(3′-{[(R)-1-(4-Chloro-3-methyl-phenyl)-propyl]-methyl-amino}-3,5-dimethyl-biphenyl-4-carbonyl)-methyl-amino]-propionic acid]	10 nM	20.9%
Cc1cc([C@H](Nc2cccc(-c3cc(C)c(C(=O)N[C@@H](C)C(=O)O)c(C)c3)c2)C(F)(F)F)ccc1Cl [Example 106, (S)-2-({3′-[(S)-1-(4-Chloro-3-methyl-phenyl)-2,2,2-trifluoro-ethylamino]-3,5-dimethyl-biphenyl-4-carbonyl}-amino)-propionic acid]	2 nM	10.9%

Second part, led by results:

IC50 [1]	Compound	response vs control in vivo at 30 mg/kg [2]
8 nM	CC[C@H](c1ccc(Cl)c(C)c1)N(C)c1cccc(-c2cc(C)c(C(=O)NC3(C(=O)O)CC3)c(C)c2)c1 [Example 108, 1-[(3′-{[(R)-1-(4-Chloro-3-methyl-phenyl)-propyl]-methyl-amino}-3,5-dimethyl-biphenyl-4-carbonyl)-amino]-cyclopropanecarboxylic acid]	19.6%
2 nM	CC[C@@H](Nc1cccc(-c2cc(C)c(C(=O)NC3(C(=O)O)CC3)c(C)c2)c1)c1ccc(Cl)c(C)c1 [Example 109, 1-({3′-[(R)-1-(4-Chloro-3-methyl-phenyl)-propylamino]-3,5-dimethyl-biphenyl-4-carbonyl}-amino)-cyclopropanecarboxylic]	19.1%
2 nM	Cc1cc([C@H](Nc2cccc(-c3cc(C)c(C(=O)NC4(C(=O)O)CC4)c(C)c3)c2)C(F)(F)F)ccc1Cl [Example 112, 1-({3′-[(S)-1-(4-Chloro-3-methyl-phenyl)-2,2,2-trifluoro-ethylamino]-3,5-dimethyl-biphenyl-4-carbonyl}-amino)-cyclopropanecarboxylic acid]	18.3%
2 nM	CC[C@@H](Nc1ccc(F)c(-c2cc(C)c(C(=O)NC3(C(=O)O)CC3)c(C)c2)c1)c1ccc(Cl)c(C)c1 [Example 115, 1-({5′-[(R)-1-(4-Chloro-3-methyl-phenyl)-propylamino]-2′-fluoro-3,5-dimethyl-biphenyl-4-carbonyl}-amino)-cyclopropanecarboxylic acid]	15.8%
2 nM	CC[C@@H](Nc1ccc(F)c(-c2cc(C)c(C(=O)N(C)[C@@H](C)C(=O)O)c(C)c2)c1)c1ccc(Cl)c(C)c1 [Example 117, (S)-2-({5′-[(R)-1-(4-Chloro-3-methyl-phenyl)-propylamino]-2′-fluoro-3,5-dimethyl-biphenyl-4-carbonyl}-methyl-amino)-propionic acid]	15%
